Key:
hERG channel = hERG channel (Homo sapiens (Human), UniProt Q12809); assay: [3H]Dofetilide binding assay, HEK-293 cell membrane preparation; details: [3H]dofetilide, HEK-293 cell membranes; read-out: hERG Binding: Mean Ki ± Standard Deviation
Procedure: [^3H]Dofetilide binding assays were conducted using commercially available HEK-293 cell membranes which stably express the hERG channel. Membranes were suspended in assay buffer (50 mM Tris, 10 mM KCl, 1 mM MgCl2, pH 7.4) prior to the experiment. […] Aliquots of the HEK-293 cell membrane suspension which contained 5 μg membrane protein were added to tubes containing assay buffer, 5 nM [^3H]dofetilide and a range of concentrations of analog (10 nM-100 μM). Nonspecific binding was determined in the presence of amitriptyline (1 mM). Samples were incubated for 1 hr. at 24° C., followed by rapid filtration. […] The affinity for the [^3H]dofetilide binding site on the hERG channel expressed in the HEK-293 cellular membrane was determined from the analog concentration response curves.

VMAT2 = VMAT2 (Rattus norvegicus (Rat), UniProt Q01827); assay: [3H]Dopamine ([3H]DA) uptake assay, vesicular preparation; format: biochemical; details: [3H]DA uptake, rat; read-out: VMAT2 (rat) Inhibition: Mean Ki ± Standard Deviation
[1] = Microsomal stability assay, rat liver microsomes; details: for CLint scaled at 0.08 µM / half-life at 0.08 µM: female, Sprague-Dawley, rat, liver microsomes; for CLint scaled at 0.08 µM: pH 7.4, Microsomal stability assays: Clearance; for half-life at 0.08 µM: pH 7.4, Microsomal stability assays: Half-life

Sequence of hERG channel (Q12809 whole entry): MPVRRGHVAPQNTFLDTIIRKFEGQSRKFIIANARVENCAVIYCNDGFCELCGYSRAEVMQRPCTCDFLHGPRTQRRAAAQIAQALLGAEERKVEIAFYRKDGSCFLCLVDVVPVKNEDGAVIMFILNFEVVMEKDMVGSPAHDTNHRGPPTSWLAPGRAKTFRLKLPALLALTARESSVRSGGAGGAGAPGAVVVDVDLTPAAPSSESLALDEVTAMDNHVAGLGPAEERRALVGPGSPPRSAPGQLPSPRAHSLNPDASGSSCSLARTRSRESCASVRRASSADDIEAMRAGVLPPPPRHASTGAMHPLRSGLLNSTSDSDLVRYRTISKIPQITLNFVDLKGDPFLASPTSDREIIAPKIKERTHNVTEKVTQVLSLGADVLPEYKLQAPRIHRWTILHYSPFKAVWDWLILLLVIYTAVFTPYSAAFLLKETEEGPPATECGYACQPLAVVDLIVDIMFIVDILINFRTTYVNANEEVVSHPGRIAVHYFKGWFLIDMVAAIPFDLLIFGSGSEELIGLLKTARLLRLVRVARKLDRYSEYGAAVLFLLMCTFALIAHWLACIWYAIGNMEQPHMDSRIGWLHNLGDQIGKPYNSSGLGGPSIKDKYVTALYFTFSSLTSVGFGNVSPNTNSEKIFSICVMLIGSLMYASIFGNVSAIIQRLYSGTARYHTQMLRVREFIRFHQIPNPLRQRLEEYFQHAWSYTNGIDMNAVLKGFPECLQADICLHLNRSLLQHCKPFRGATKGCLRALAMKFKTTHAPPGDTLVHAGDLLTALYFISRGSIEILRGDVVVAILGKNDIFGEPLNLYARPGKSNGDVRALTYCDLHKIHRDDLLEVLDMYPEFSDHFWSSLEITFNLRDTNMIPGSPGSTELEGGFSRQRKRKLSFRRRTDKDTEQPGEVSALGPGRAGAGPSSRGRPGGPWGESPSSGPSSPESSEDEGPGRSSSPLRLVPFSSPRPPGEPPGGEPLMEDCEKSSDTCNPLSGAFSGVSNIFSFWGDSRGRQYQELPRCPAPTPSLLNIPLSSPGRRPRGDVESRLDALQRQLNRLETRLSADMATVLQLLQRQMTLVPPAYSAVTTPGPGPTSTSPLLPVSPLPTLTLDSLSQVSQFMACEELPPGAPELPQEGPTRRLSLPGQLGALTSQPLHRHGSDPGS

| SMILES | Ki (hERG channel) | Ki (VMAT2) | Microsomal stability assays: Half-life [1] | CLint scaled at 0.08 µM [1] | half-life at 0.08 µM [1] | Microsomal stability assays: Clearance [1] |
| --- | --- | --- | --- | --- | --- | --- |
| CC(Cc1ccccc1)NCCCc1ccc(-c2cccnc2)cc1 (centres unmarked) [Compound 210] | 3120 ± 251 nM | 55.4 ± 7.94 nM | 6 min | 392 mL/min/kg | – | – |
| CC(Cc1ccc(Br)cc1)NCCCc1ccc(F)cc1 (centres unmarked) [Compound 200] | 242 ± 76 nM | 15.2 ± 8.86 nM | – | 186 mL/min/kg | 18 min | – |
| CC(Cc1ccc(Br)cc1)NCCCc1ccc(I)cc1 (centres unmarked) [Compound 180] | 601 ± 195 nM | 48.4 ± 19.4 nM | – | 290 mL/min/kg | 12 min | – |
| CC(Cc1ccc(F)cc1)NCCCc1c[nH]c2ccccc12 (centres unmarked) [Compound 91] | 2200 ± 124 nM | 36.5 ± 5.56 nM | – | > 400 mL/min/kg | < 6 min | – |
| CC(Cc1ccc(-c2cncnc2)cc1)NCCCc1ccc(F)cc1 (centres unmarked) [Compound 196] | 402 ± 72.2 nM | 7.12 ± 1.59 nM | – | 14.7 mL/min/kg | 192 min | – |
| FCC(Cc1ccc(Br)cc1)NCCCc1ccc(F)cc1 (centres unmarked) [Compound 85] | 1130 ± 711 nM | 35.7 ± 7.32 nM | 6 min | 335 mL/min/kg | – | – |
| CC(Cc1ccccc1)NCCCc1ccc(I)cc1 (centres unmarked) [Compound 215] | 3040 ± 1370 nM | 6.86 ± 1.81 nM | – | – | 18 min | 148 mL/min/kg |
| CC(Cc1ccc(C(F)(F)F)cc1)NCCCc1ccncc1 (centres unmarked) [Compound 164] | 1890 ± 639 nM | 53.3 ± 6.5 nM | – | 83.3 mL/min/kg | 36 min | – |
| CC(Cc1ccc(F)cc1)NCCCc1ccncc1 (centres unmarked) [Compound 176] | 3770 ± 2.04 nM | 80.7 ± 21 nM | – | 71.8 mL/min/kg | 42 min | – |
| CC(Cc1ccc(N)cc1)NCCCc1ccc(F)cc1 (centres unmarked) [Compound 111] | 2500 ± 435 nM | 16.7 ± 3.34 nM | 144 min | – | – | 19.5 mL/min/kg |
| CC(Cc1ccccc1)NCCCc1ccc(I)cc1 (centres unmarked) [Compound 212] | 642 ± 168 nM | 22.2 ± 2.21 nM | 6 min | – | – | 439 mL/min/kg |
| CC(Cc1ccc(-c2cccnc2)cc1)NCCCc1ccc(F)cc1 (centres unmarked) [Compound 192] | 675 ± 127 nM | 11.9 ± 9.94 nM | – | 77.2 mL/min/kg | 36 min | – |
| CC(Cc1ccc(Br)cc1)NCCCc1ccc(Cl)cc1 (centres unmarked) [Compound 184] | 196 ± 30.5 nM | 9.06 ± 1.61 nM | 6 min | 452 mL/min/kg | – | – |
| FCC(Cc1ccc(F)cc1)NCCCc1ccc(F)cc1 (centres unmarked) [Compound 152] | 5700 ± 2970 nM | 27.3 ± 12.8 nM | – | 298 mL/min/kg | 12 min | – |
| CC(Cc1ccc(NC=O)cc1)NCCCc1ccc(F)cc1 (centres unmarked) [Compound 87] | 738 ± 244 nM | 12.7 ± 2.85 nM | – | 13.3 mL/min/kg | 210 min | – |
| FCC(Cc1ccccc1)NCCCc1ccc(F)cc1 (centres unmarked) [Compound 101] | 4800 ± 940 nM | 14.7 ± 9.28 nM | – | 253 mL/min/kg | 12 min | – |
| CC(Cc1ccc(NC=O)cc1)NCCCc1ccc(F)cc1 (centres unmarked) [Compound 90] | 738 ± 244 nM | 12.7 ± 2.85 nM | 114 min | – | – | 24.9 mL/min/kg |
| CC(Cc1ccc(F)cc1)NCCCc1ccc(I)cc1 (centres unmarked) [Compound 182] | 512 ± 126 nM | 52.7 ± 6.35 nM | 6 min | 375 mL/min/kg | – | – |
| CC(Cc1ccccc1)NCCCc1ccc(C(F)(F)F)cc1 (centres unmarked) [Compound 194] | 791 ± 270 nM | 27.7 ± 7.81 nM | – | 138 mL/min/kg | 18 min | – |
| FCC(Cc1ccc(F)cc1)NCCCc1ccc(Cl)cc1 (centres unmarked) [Compound 150] | 2340 ± 1070 nM | 39.1 ± 7.97 nM | 6 min | 540 mL/min/kg | – | – |

| SMILES | Ki (hERG channel) | Ki (VMAT2) | Microsomal stability assays: Half-life [1] | CLint scaled at 0.08 µM [1] | half-life at 0.08 µM [1] | Microsomal stability assays: Clearance [1] |
| --- | --- | --- | --- | --- | --- | --- |
| CC(Cc1ccc(F)c(F)c1)NCCCc1ccncc1 (centres unmarked) [Compound 96] | 4070 ± 734 nM | 78.5 ± 15.8 nM | – | 96.8 mL/min/kg | 30 min | – |
| CC(Cc1ccc(F)cc1)NCCCc1ccc(Br)cc1 (centres unmarked) [Compound 145] | 506 ± 199 nM | 22.1 ± 6.5 nM | 6 min | 402 mL/min/kg | – | – |
| CC(Cc1ccccc1)NCCCc1ccc(O)cc1 (centres unmarked) [Compound 223] | 2750 ± 1080 nM | 5.01 ± 1.72 nM | – | – | – | – |
| CC(Cc1ccncc1)NCCCc1ccc(O)cc1 (centres unmarked) [Compound 178] | 5070 ± 71.4 nM | 124 ± 29.4 nM | – | 89.3 mL/min/kg | 30 min | – |
| CC(Cc1ccc(F)cc1)NCCCc1ccc([N+](=O)[O-])cc1 (centres unmarked) [Compound 160] | 67.1 ± 14.7 nM | 14.3 ± 2.2 nM | – | 119 mL/min/kg | 24 min | – |
| COc1ccc(CC(C)NCCCc2ccc([N+](=O)[O-])cc2)cc1 (centres unmarked) [Compound 58] | 42.3 ± 8.21 nM | 16.6 ± 3.99 nM | – | – | – | – |
| FCC(Cc1ccccc1)NCCCc1ccccc1 (centres unmarked) [Compound 98] | 17100 ± 12100 nM | 27.8 ± 5.29 nM | – | > 400 mL/min/kg | < 6 min | – |
| CC(Cc1ccc(Cl)cc1)NCCCc1ccc(N)cc1 (centres unmarked) [Compound 62] | 2380 ± 1120 nM | 31.6 ± 4.66 nM | – | 83 mL/min/kg | 36 min | – |
| CC(Cc1ccccc1)NCCCc1ccc(S)cc1 (centres unmarked) [Compound 216] | 4190 ± 1080 nM | 65.4 ± 23.4 nM | – | 170 mL/min/kg | 18 min | – |
| CC(Cc1ccc(Br)cc1)NCCCc1ccncc1 (centres unmarked) [Compound 174] | 880 ± 251 nM | 52.1 ± 35.9 nM | – | 126 mL/min/kg | 24 min | – |
| CC(=O)Nc1ccc(CCCNC(C)Cc2ccc(F)cc2)cc1 (centres unmarked) [Compound 66] | 10100 ± 3350 nM | 32.5 ± 3.52 nM | – | 30.7 mL/min/kg | 90 min | – |
| CC(Cc1ccc(Cl)cc1)NCCCc1ccc([N+](=O)[O-])cc1 (centres unmarked) [Compound 64] | 28.8 ± 13.7 nM | 16.4 ± 1.47 nM | – | – | – | – |
| CC(Cc1ccc([N+](=O)[O-])cc1)NCCCc1ccc(F)cc1 (centres unmarked) [Compound 117] | 206 ± 137 nM | 7.08 ± 1.29 nM | – | 148 mL/min/kg | 18 min | – |
| CCC(Cc1ccccc1)NCCCc1ccc(O)cc1 (centres unmarked) [Compound 207] | 2380 ± 517 nM | 37.8 ± 6.59 nM | – | > 400 mL/min/kg | < 6 min | – |
| CC(Cc1ccccc1)NCCCc1ccc([N+](=O)[O-])cc1 (centres unmarked) [Compound 222] | 96.1 ± 28.3 nM | 4.97 ± 3.08 nM | – | > 400 mL/min/kg | < 6 min | – |
| CC(Cc1ccc(N)cc1)NCCCc1ccc(F)cc1 (centres unmarked) [Compound 110] | 2590 ± 792 nM | 19.2 ± 4.43 nM | – | < 10 mL/min/kg | > 240 min | – |
| CC(Cc1ccc(-c2cncnc2)cc1)NCCCc1ccc(Cl)cc1 (centres unmarked) [Compound 170] | 199 ± 64.9 nM | 6.74 ± 2.59 nM | – | 34.2 mL/min/kg | 84 min | – |
| CCOC(=O)c1ccc(CCCNC(C)Cc2ccc(F)cc2)cc1 (centres unmarked) [Compound 158] | 1410 ± 275 nM | 42.8 ± 8.89 nM | – | 120 mL/min/kg | 24 min | – |
| CC(Cc1ccc(F)cc1)NCCCc1ccc(N)cc1 (centres unmarked) [Compound 94] | 3980 ± 3410 nM | 84.6 ± 29.1 nM | – | 119 mL/min/kg | 24 min | – |
| CC(Cc1ccc(F)c(F)c1)NCCCc1ccc([N+](=O)[O-])cc1 (centres unmarked) [Compound 59] | 55.6 ± 7.7 nM | 13.1 ± 2.87 nM | – | – | – | – |

Reference: patent US11999676B2, “Vesicular monoamine transporter-2 ligands and their use in the treatment of psychostimulant abuse” (priority 2016, dated 2024)
